Assay results published in patent US10149841B2, “Compound of 3-hydroxyl pyridine, preparation method thereof and pharmaceutical use thereof” (SHENYANG SUNSHINE PHARMACEUTICAL CO. LTD., priority 2015, dated 2018).

Each compound was assayed against HIF Prolyl hydroxylases 2 (PHD2) (Homo sapiens (Human), UniProt Q9GZT9) (assay: Inhibitory effect on PHD2 by fluorescence polarization (HIF-1α / VBC complex interaction)). Details: PHD2 0.5 μg/μl, FAM-HIF (556-575) 1 μM, FP readout with GST-VBC complex.
Sequence of HIF Prolyl hydroxylases 2 (PHD2) (Q9GZT9 whole entry, species assumed): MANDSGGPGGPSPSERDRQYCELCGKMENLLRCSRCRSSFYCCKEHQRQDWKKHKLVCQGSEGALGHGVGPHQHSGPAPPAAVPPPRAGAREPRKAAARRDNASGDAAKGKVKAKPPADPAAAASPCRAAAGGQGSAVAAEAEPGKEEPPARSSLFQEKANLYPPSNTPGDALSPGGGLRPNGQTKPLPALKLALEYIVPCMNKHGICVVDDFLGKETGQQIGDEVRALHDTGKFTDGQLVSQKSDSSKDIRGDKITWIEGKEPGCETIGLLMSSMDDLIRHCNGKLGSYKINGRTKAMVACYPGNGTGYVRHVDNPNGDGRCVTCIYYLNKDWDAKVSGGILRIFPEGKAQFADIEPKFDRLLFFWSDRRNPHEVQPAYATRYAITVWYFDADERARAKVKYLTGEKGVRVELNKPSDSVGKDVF
Assay type: biochemical
Description: Biological Example 2: Detection of Inhibitory Effect of the Compounds on PHD2 (IC50)
The interaction between hypoxia-inducible factor HIF-1α and VBC complex (von Hippel-Lindau protein-Elongin B-Elongin C, VBC) was detected by Fluorescence polarization (FP) method, to measure the enzyme inhibitory activity of the HIF Prolyl hydroxylases 2 (PHD2) inhibitor compounds.
To a NETN (20 mM Tris.HCl, 100 mM NaCl, 1 mM EDTA, 0.5% NP-40, 1 mM PMSF) buffer containing 200 μM ascorbic acid, 20 μM α-ketoglutaric acid, 100 μM FeCl2 was added FAM-HIF (556-575) at a final concentration of 1 μM in the dark. Subsequently, the desired concentration of the test compound or the positive compound was added (the compound was replaced by the buffer in the negative control and the positive control). Finally, PHD2 was added at a final concentration of 0.5 μg/μl (PHD2 was replaced by the buffer in the negative control). They were mixed well and allowed to stand at room temperature for 30 minutes in the dark followed by 95° C. water bath for 1 minute, and then the reaction was terminated. After the temperature drops to room temperature, the sample was prepared well for use. EBC buffer (50 mM Tris.HCl, 120 mM NaCl, 0.5% NP-40) was added to the corresponding wells of a black 96-well test plate. A GST-VBC complex was added to the corresponding test wells at a final concentration of 300 nM (using the wells containing only EBC buffer as blank wells). Subsequently, the corresponding PHD2 prolyl hydroxylation reaction sample was added in the dark as a substrate with a final concentration of 100 nM. After mixing well, the lateral and longitudinal fluorescence intensity values were measured using a full-wavelength multifunctional microplate reader (TECAN infinite M1000) at an excitation wavelength of […] and an emission wavelength of 518 nm.
The fluorescence polarization (mP) was calculated: mP=1000×(lateral value−G factor×longitudinal value)/(lateral value+G factor×longitudinal value)
wherein, lateral value=lateral fluorescence intensity value of test well−lateral fluorescence intensity value of blank well, • longitudinal value=longitudinal fluorescence intensity value of test well−longitudinal fluorescence intensity value of blank well,
PHD2 inhibition rate (%) of the test compound was calculated according to the following formula: Inhibition rate (%)=1−(mP test well−mP negative control well)/(mP positive control well−mP negative control well).
The IC50 was calculated using the non-linear regression data analysis method of Graphpad Prism 4.0 software ([…]).

| IC50 | Structure (SMILES) |
| --- | --- |
| 84 µM | O=C(O)CNC(=O)c1ncc(Oc2ccccc2)cc1O [Compound 1, 2-(3-hydroxy-5-phenoxy-2-pyridylformamido) acetic acid] |
| 237 µM | Cc1cccc(Oc2cnc(C(=O)NCC(=O)O)c(O)c2)c1C [Compound 5, 2-(5-(2,3-dimethylphenoxy)-3-hydroxypyridine-2-formamido) acetic acid] |
| 91 µM | O=C(O)CNC(=O)c1ncc(Oc2ccc3ccccc3c2)cc1O [Compound 8, 2-(3-hydroxy-5-(naphthalen-2-oxo)pyridine-2-formamido) acetic acid] |
| 15 µM | O=C(O)CNC(=O)c1ncc(Oc2cccc(F)c2F)cc1O [Compound 9, 2-(5-(2,3-difluorophenoxy)-3-hydroxypyridine-2-formamido) acetic acid] |
| 63 µM | Cc1ccc(Oc2cnc(C(=O)NCC(=O)O)c(O)c2)c(C)c1 [Compound 19, 2-(5-(2,4-dimethylphenoxy)-3-hydroxypyridine-2-formamido) acetic acid] |
| 236 µM | O=C(O)CNC(=O)c1ncc(Oc2cccc(Cl)c2)cc1O [Compound 22, 2-(5-(3-chlorophenoxy)-3-hydroxypyridine-2-formamido) acetic acid] |
